From US20100047191A1, “NOVEL USE” (priority 2007, published 2010)

Experiments:
[1] = Enamel anti-caries softening microhardness study (lactic acid buffer); design: species or system human; conditions: two cycles of 2 minute treatment and two hours 0.1M lactic acid buffer pH 4.5
Procedure: The study performed involved incubation of human enamel in 0.1M lactic acid buffer (pH 4.5), following a 2 minute treatment with one of the following four formulations: (A) 0.5% suspension of nano ZnO. […] (D) de-ionised water. The zinc oxide used was Nanoshield ZN-3008C as described above in Example 4. Specimens were washed with water in between treatments and erosion procedures. The acid exposure time was two hours, after which the specimens were rinsed in de-ionised water and re-treated with the appropriate formulation for 2 minutes. The specimens then were placed into the lactic acid for a further two hours. After the acid challenge they were washed thoroughly with de-ionised water and the microhardness measured. Six indents were obtained for each enamel specimen and each treatment was performed on six individual specimens (n=6).
The values for enamel hardness have been normalised relative to the individual baseline microhardness values, thus data at subsequent time points reflects softening of the enamel. The error bars in Graph 9 represent standard deviations.

[2] = 20-day in vitro erosion cycling study (microhardness); design: species or system human
Text: Human enamel specimens (3×3 mm) were ground and polished using silicon carbide paper. The top side of the specimens was ground using 1200-grit paper and then serially polished using 4000-grit paper followed by […] diamond polishing suspension. Each specimen was mounted on the end of an acrylic rod (¼″ diameter×2″ long) using superglue. The sides of each specimen were covered with an epoxy resin so that only the enamel surface was exposed. Eighteen specimens per group were used for the study. Each group was composed of 3 subgroups of 6 specimens. Initial hardness of the sound specimens was determined using a Vickers hardness indenter by applying a load of 200 g for 15 seconds. The average specimen microhardness was determined from four indentations on the surface of each specimen. Only specimens with a sound surface hardness of between 300 and 350 were accepted. A 50:50 mixture of pooled, human saliva and a mineral solution was used as the remineralisation medium in all treatment regimens, and the demineralising solution was 1% citric acid, pH 3.8. The four treatments considered were: Group A) Deionised water, Group B) 300 ppm Fluoride, Group C) 0.50 wt % ZnO in deionized water, Group D) 0.50 wt % ZnO in 300 ppm Fluoride. […] The cyclic treatment regimen consisted of five, two-minute acid challenges in the demineralizing solution and three, two-minute treatment periods (with stirring at 350 rpm). After each treatment, the specimens were rinsed with running deionized water and then placed back into the saliva remineralization system. This regimen was repeated for 10 days, after which time the specimens were analysed by remeasuring their microhardness. A further 10 days of cycling was then performed and a 20 day microhardness value measured.
Statistical analysis of the data above in Graph 4 was performed with a one-way analysis of variance using Sigma Stat (3.0) Software. ANOVA indicated a significant difference so pair wise comparisons between the groups was conducted (Student Newman Keuls test).

[3] = Hydroxyapatite microplate erosion method (phosphate release after 1% citric acid, pH 3.8); conditions: Example 7
Procedure: The wells of 96-well 200 μl microplates were filled with a concentrated suspension of high resolution hydroxyapatite (HA) powder (20 g HA in 200 ml acetone). The plates were allowed to dry under agitation (50 rpm on an orbital shaker) and then washed thoroughly with deionised water to remove any loose HA. For erosion experiments, the wells of the HA coated microplates were filled with deionised water and left to hydrate for 60 mins. The water was then removed and each of the 8 wells of one lane of the microplate filled with 200 μl of one of the agents to be tested. Each plate contained 12 lanes, so 6 agents could be tested in duplicate (at n=8) in each microplate. The actives were left in the wells for 30 mins under agitation, after which time the plates were again washed thoroughly with deionised water. The erosive challenge used for the study was an orange juice mimic, 1% citric acid, pH 3.8. The wells of the plate were exposed to 200 μl of the citric acid solution under agitation for 30 mins. After the acid challenge, 50 μl of the citric acid was removed from each well and placed into the corresponding well of a new 96-well microplate. 50 μl of vanadomolybdate reagent was then added to each well and after 5 mins, the absorbance of the solution in each well at 450 nm was read using a microplate plate reader. The test agents assessed using this technique were nanoparticulate zinc oxide aqueous suspension, 0.5 wt % in water, stabilised with both anionic and cationic dispersants (Nanoshield ZN-3008C and Nanoshield ZN-3014A respectively, both 70 nm average particle size and obtained from Nanophase Technologies, 1319 Marquette Drive, Romeoville, Ill. 60446. USA).
The chart contains data from one microplate, where treatments have been carried out in duplicate at n=8 each time, as described above. […] The positive control used was 300 ppm fluoride, and the negative control was deionised water.
An additional experiment was performed as described in Example 4, where the stabilising agent for the nanoparticulate zinc oxide (0.5 wt % suspension in water) was sodium hexametaphosphate (HMP) present in an amount of 2 wt % with respect to the zinc oxide (ie present in an amount of 0.01 wt %). […] The nanoparticulate zinc oxide was tested in the presence and absence of fluoride again, and at two different pH values (pH 7 and pH 9).
The experiments were performed as described in Example 4 above, using one side of a hydroxyapatite microplate (n=8). The test agents assessed in this case were a) 0.5 wt % Nanoshield ZN-3008C in water, b) 0.5 wt % zinc acetate, c) 0.5 wt % zinc citrate and d) 0.5 wt % zinc oxide (bulk material). […] Positive and negative controls used were 225 ppm fluoride and deionised water respectively.
A final hydroxyapatite microplate experiment was performed as described in Examples 4 and 5 where the stabilising agent for the nanoparticulate zinc oxide was either polyvinyl pyrrolidone (PVP) or Propylene glycol. […] The nanoparticulate zinc oxide was tested in the presence of fluoride in each case.

[4] = repeated acidic erosive challenges; placebo 13.9 μm; cited from earlier work
[5] = acidic acetate buffer at pH 4.5; cited from earlier work
[6] = 0.5 wt % in 225 ppm fluoride solution, Graph 6
[7] = 0.5 wt % in deionised water, no fluoride, Graph 5

Compound	protection from the lactic acid buffer challenge [1]	% VHN compared to baseline, After treatment/acid challenge ([1]; n=6) [%]	Change at 10 days (microhardness vs lesion baseline, mean) ([2]; 10 days cycling)	Post 10 days (Vickers microhardness, mean) ([2]; 10 days cycling: five 2-min 1% citric acid challenges and three 2-min treatments daily, saliva remineralisation)	Change at 20 days (microhardness vs lesion baseline, mean) ([2]; 20 days cycling)	Post 20 days (Vickers microhardness, mean) ([2]; 20 days cycling)	preventing the demineralisation of hydroxyapatite, combination with 225 ppm fluoride compared with 225 ppm fluoride alone [3, 6]	preventing the demineralisation of hydroxyapatite, combination with 225 ppm fluoride compared with water [3, 6]	depth of complete mineral loss [4] [μm]	preventing demineralisation of hydroxyapatite, compared with water [3, 7]	preventing the demineralisation of hydroxyapatite, compared with 225 ppm fluoride [3, 7]	decreasing acid dissolution of hydroxyapatite, compared with sodium fluoride [5]
[F-].[Na+] [300 ppm F, sodium fluoride]	approximately 70%	70	−64.6	189.5	−20.1	234.0						
O=C([O-])CC(O)(CC(=O)[O-])C(=O)[O-].O=C([O-])CC(O)(CC(=O)[O-])C(=O)[O-].[Zn+2].[Zn+2].[Zn+2] [Zinc citrate, zinc citrate]							statistically inferior to fluoride alone	statistically superior to water	10.7			
CC(=O)[O-].CC(=O)[O-].[Zn+2] [zinc acetate]							directionally superior but statistically equivalent to 225 ppm fluoride alone			statistically superior to water	statistically inferior to both the stabilised nanoparticulate zinc oxide and 225 ppm fluoride	almost as effective as sodium fluoride
